Measured values taken from the supplement of paper PMC10307832.

What was measured:
Assay in all cases: relative viability (nuclei count vs DMSO), 5 days (fraction); higher = more cells survive
[1] = compound: O=c1ncccn1[C@@H]1O[C@H](CO)[C@@H](O)[C@H]1O [Zebularine] + Cc1nc(Nc2ncc(C(=O)Nc3c(C)cccc3Cl)s2)cc(N2CCN(CCO)CC2)n1 [Dasatinib] (partner 0.075 µM)
Procedure, shortened: (§1)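 Medians of duplicate plates are given as relative viability. That measure is the nuclei count in treated wells divided by the count in vehicle wells. Counts were taken on 4× images of lung cancer cell lines in 1536-well plates, 5 days after pin-tool dosing the day after seeding with one drug alone or a fixed anchor-drug dose plus five library-drug doses (not always all listed) in √10 steps.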

[2] = compound: O=c1ncccn1[C@@H]1O[C@H](CO)[C@@H](O)[C@H]1O [Zebularine] + CCNC(=O)c1noc(-c2cc(C(C)C)c(O)cc2O)c1-c1ccc(CN2CCOCC2)cc1 [Luminespib] (partner 0.01 µM)
Procedure, shortened: as §1

[3] = compound: CC(C)CCN1c2nc(Nc3cc(F)c(O)c(F)c3)ncc2N(C)C(=O)C1C [BI-D1870] + CC(C)C[C@H](NC(=O)[C@H](Cc1ccccc1)NC(=O)c1cnccn1)B(O)O [Bortezomib] (partner 0.002 µM)
Procedure, shortened: as §1

[4] = compound: CC(C)CCN1c2nc(Nc3cc(F)c(O)c(F)c3)ncc2N(C)C(=O)C1C [BI-D1870] + Nc1ncn([C@H]2C[C@H](O)[C@@H](CO)O2)c(=O)n1 [Decitabine] (partner 2 µM)
Procedure, shortened: as §1

Row | Cell Line | relative viability ([1]; first compound 1 µM) | relative viability ([1]; first compound 3.162 µM) | relative viability ([1]; first compound 10 µM) | relative viability ([1]; first compound 31.62 µM) | relative viability ([1]; first compound 100 µM) | relative viability ([2]; first compound 1 µM) | relative viability ([2]; first compound 3.162 µM) | relative viability ([2]; first compound 10 µM) | relative viability ([2]; first compound 31.62 µM) | relative viability ([2]; first compound 100 µM) | relative viability ([3]; first compound 0.04 µM) | relative viability ([3]; first compound 0.1265 µM) | relative viability ([3]; first compound 0.4 µM) | relative viability ([3]; first compound 1.265 µM) | relative viability ([3]; first compound 4 µM) | relative viability ([4]; first compound 0.04 µM) | relative viability ([4]; first compound 0.1265 µM) | relative viability ([4]; first compound 0.4 µM) | relative viability ([4]; first compound 1.265 µM) | relative viability ([4]; first compound 4 µM)
1 | NCI-H2023 | 0.636 | 0.572 | 0.423 | 0.392 | 0.213 | 0.942 | 1.04 | 0.301 | 0.448 | 0.174 | 1.2 | 0.901 | 0.957 | 0.95 | 0.647 | 0.204 | 0.188 | 0.232 | 0.248 | 0.281
2 | NCI-H2085 | 0.209 | 0.226 | 0.243 | 0.222 | 0.246 | 0.625 | 0.436 | 0.339 | 0.423 | 0.277 | 1.17 | 0.994 | 0.947 | 0.968 | 0.762 | 0.541 | 0.556 | 0.643 | 0.519 | 0.557
3 | NCI-H2087 | 1.14 | 0.786 | 0.426 | 0.972 | 0.631 | 0.19 | 0.17 | 0.143 | 0.176 | 0.141 | 0.829 | 0.845 | 0.927 | 1.13 | 0.839 | 0.259 | 0.28 | 0.307 | 0.342 | 0.38
4 | NCI-H2126 | 0.813 | 0.538 | 0.612 | 0.569 | 0.488 | 1.01 | 0.85 | 0.889 | 0.795 | 0.379 | 1.12 | 1.1 | 1.06 | 1.14 | 1.05 | 0.576 | 0.549 | 0.585 | 0.606 | 0.556
5 | NCI-H2347 | 0.309 | 0.322 | 0.302 | 0.227 | 0.254 | 0.504 | 0.418 | 0.293 | 0.213 | 0.28 | 1.04 | 0.856 | 1.14 | 1.24 | 0.915 | 0.671 | 0.656 | 0.619 | 0.657 | 0.627
6 | NCI-H2405 | 0.229 | 0.213 | 0.207 | 0.188 | 0.211 | 0.705 | 0.779 | 0.651 | 0.797 | 0.498 | 1.07 | 0.89 | 0.959 | 1.02 | 1.02 | 0.788 | 0.693 | 0.733 | 0.777 | 0.726
